Measured values from patent US6335354B2, “Aminopyridines and methods of using thereof” (CoCensys Inc., priority 2000, dated 2002).

What was measured:
[1] = molecular target: T1, hSkM1 isoform of Na+ channels (Homo sapiens, UniProt P35499); assay: Electrophysiological assay, whole-cell patch-clamp recordings of voltage-sensitive Na+ currents; type: cell-based; conditions: HEK-293 cells stably expressing hSkM1
T1 construct: expressed in transfected cells
Procedure: Cell preparalion. HEK-293 cells stably expressing the hSkM1 isoform of Na^+ channels (generous gift from Dr. A. L. George, Vanderbilt University Medical School) were cultured using standard techniques, as described previously (Verdoorn, T. A, et al., Neuron 4:919-928 (1990)). For electrophysiology, cells were plated onto 35 mm Petri dishes (pre-coated with poly-D-lysine) at a density of 1:40 on the day of re-seeding from confluent cultures. Our experience has been that cells are suitable for recordings for 2-3 days after plating.
Patch-clamp recordings of voltage-sensitive Na^+ currenis. Whole-cell voltage-clamp recordings were made using conventional patch-clamp techniques (Hamill et al, Pfluegers Arch. 391:85-100 (1981)) with an Axopatch 200A amplifier (Axon Instruments, Foster City, Calif.). Recordings were made within 2-3 hours after neuron dissociation. The recording chamber was continuously superfused with the external solution (150 mM NaCl, 5.4 mM KCl, 1.8 mM CaCl2, 1 mM MgCl2, 10 mM HEPES, 10 mM glucose, pH 7.4 (NaOH)) at a speed of about 1 mL/min. Recording pipettes were pulled from thick-walled capillaries (WPI, Sarasota, Fla.) and fire-polished. The pipette resistances ranged from 1 to 3 MΩ when the pipettes were filled with internal solution containing (in mM): 110 CsF, 10 NaCl, 5 MgCl2, 11 EGTA, 10 HEPES, pH adjusted to 7.4 with CsOH. Osmolality was set with a difference of 15-20 mmol/kg between external and internal solutions (lower inside the cell). Drugs and intervening wash-outs were applied through a linear array of flow pipes (Drummond Microcaps, 2 μL, 64-mm length). […] Currents were recorded at room temperature (22-25° C.), filtered at 5 kHz with an active 8-pole Bessel filter (Frequency Devices, Haverhill, Mass.), digitized at 10-50 μs intervals, and stored using Digidata 1200 analog/digital interface with Pclamp6/Clampex software (Axon Instruments). […] The inhibitory potency of drugs was assessed by measuring reductions in the peak amplitude of Na^+ currents induced by increasing concentrations of compounds tested. […]

[2] = test system: maximal electroshock-induced seizures (MES); assay: maximum electroshock seizure test (MES); type: in vivo; conditions: Mus musculus, iv; mice, injected i.v. 15 minutes before the test procedure; read-out: ED50 (the dose protecting 50% of animals), protection against MES
From the text: The compounds of the present invention may be tested for in vivo anticonvulsant activity after i.v., p.o. or i.p. injection using a number of anticonvulsant tests in mice, including the maximum electroshock seizure test (MES). Maximum electroshock seizures were induced in male NSA mice weighing between 15-20 g and male Sprague-Dawley rats weighing between 200-225 g by application of current (50 mA, 60 pulses/sec, 0.8 msec pulse width, 1 sec duration, D.C., mice; 99 mA. 125 pulses/sec, 0.8 msec pulse width, 2 sec duration, D.C., rats) using a Ugo Basile FCT device (Model 7801). Mice were restrained by gripping the loose skin on their dorsal surface and saline-coated corneal electrodes were held lightly against the two corneae. Rats were allowed free movement on the bench top and ear-clip electrodes were used. […] A tonic seizure was defined as a hindlimb extension in excess of 90 degrees from the plane of the body. Results were treated in a quantal manner. The ability of N^3-[4-(4-fluorophenoxy)benzyl]pyridine-2,3-diamine to block maximal electroshock-iniduced seizures (MES) was determined according to the method above. N^3-[4-(4-Fluorophenoxy)benzyl]pyridine-2,3-diamine was injected i.v. to mice 15 minutes before the test procedure.

T1 sequence (P35499 whole entry, canonical isoform): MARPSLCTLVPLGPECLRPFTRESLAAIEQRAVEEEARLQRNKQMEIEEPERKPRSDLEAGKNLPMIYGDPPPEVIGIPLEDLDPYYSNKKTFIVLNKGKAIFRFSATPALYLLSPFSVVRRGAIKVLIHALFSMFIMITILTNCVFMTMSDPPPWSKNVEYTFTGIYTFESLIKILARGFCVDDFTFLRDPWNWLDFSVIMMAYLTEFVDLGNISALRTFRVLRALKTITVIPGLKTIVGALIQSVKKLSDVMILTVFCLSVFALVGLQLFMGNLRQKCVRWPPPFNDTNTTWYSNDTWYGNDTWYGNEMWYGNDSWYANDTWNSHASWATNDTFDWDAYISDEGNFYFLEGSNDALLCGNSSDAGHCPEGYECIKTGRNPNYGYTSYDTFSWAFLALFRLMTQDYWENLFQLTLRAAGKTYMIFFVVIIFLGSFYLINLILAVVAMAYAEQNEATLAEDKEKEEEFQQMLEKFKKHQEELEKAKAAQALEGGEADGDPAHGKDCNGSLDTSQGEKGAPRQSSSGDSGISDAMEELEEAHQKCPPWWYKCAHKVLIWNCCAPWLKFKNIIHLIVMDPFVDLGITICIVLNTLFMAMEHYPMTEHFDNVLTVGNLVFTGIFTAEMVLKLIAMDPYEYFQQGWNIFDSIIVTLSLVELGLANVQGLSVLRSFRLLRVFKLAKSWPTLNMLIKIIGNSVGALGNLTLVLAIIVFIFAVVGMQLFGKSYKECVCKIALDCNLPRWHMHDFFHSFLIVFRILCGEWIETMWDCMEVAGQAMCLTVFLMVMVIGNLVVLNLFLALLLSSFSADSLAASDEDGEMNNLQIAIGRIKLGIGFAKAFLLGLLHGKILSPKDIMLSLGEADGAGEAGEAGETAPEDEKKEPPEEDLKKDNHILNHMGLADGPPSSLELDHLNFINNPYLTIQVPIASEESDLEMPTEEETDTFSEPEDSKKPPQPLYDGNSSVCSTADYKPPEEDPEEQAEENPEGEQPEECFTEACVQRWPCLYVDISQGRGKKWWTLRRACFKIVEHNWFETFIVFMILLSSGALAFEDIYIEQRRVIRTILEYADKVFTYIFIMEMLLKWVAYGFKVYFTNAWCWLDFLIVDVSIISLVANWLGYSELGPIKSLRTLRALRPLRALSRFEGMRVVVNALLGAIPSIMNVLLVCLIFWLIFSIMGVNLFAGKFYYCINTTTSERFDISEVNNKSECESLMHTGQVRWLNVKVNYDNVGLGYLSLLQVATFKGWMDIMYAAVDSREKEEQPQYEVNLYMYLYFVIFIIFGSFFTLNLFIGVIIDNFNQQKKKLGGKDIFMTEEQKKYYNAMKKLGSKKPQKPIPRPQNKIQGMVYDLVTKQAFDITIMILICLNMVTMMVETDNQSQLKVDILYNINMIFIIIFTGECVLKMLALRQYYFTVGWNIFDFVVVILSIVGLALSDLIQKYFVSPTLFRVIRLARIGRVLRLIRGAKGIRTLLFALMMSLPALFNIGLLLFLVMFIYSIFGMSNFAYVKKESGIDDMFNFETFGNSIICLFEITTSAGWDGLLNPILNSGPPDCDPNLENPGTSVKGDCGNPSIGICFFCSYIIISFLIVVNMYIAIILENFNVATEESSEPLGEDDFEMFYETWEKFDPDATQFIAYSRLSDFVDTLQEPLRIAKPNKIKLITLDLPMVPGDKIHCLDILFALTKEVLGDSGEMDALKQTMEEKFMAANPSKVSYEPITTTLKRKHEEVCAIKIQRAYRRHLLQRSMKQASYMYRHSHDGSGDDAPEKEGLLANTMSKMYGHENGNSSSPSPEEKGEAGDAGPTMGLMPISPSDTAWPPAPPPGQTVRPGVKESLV

Structure (SMILES) | inhibition of voltage-gated sodium currents [1] | Ki ([1]; inactivated state, read-out: apparent antagonist dissociation constant Ki (the concentration of a compound that produces half maximal inhibition) for inactivated sodium channels) [nM] | potency towards Na+ channels in their resting states ([1]; resting state) | ED50 [2] [mg/kg]
Nc1ncccc1NCc1ccc(Oc2ccc(F)cc2)cc1 [N^3-[4-(4-Fluorophenoxy)benzyl]pyridine-2,3-diamine] | dose-dependent inhibition | 60 | weak potency | –
Nc1ncccc1NCc1ccc(OCc2cccc(F)c2)cc1 [N^3-[4-(3-Fluorobenzyloxy)benzyl]pyridine-2,3-diamine] | – | – | – | 2.9
